Reference: the supplement of paper PMC10307832

Key:
Test in all cases: relative viability (nuclei count vs DMSO), 5 days (fraction); higher = more cells survive
[1] = compound: CC1=C(C(=NN1)C)CC2=C(C3=C(S2)N(C(=O)N(C3=O)C)CC(C)C)C(=O)N4C[C@@H](CO4)O + O=C(CCCCCCC(=O)Nc1ccccc1)NO [Vorinostat] (partner 1 µM)
How it was run: (§1)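 Dosing by pin tool came one day after lung cancer cell lines were seeded in 1536-well plates, using either one drug or a fixed anchor-drug dose plus five library-drug doses (not always all listed) in √10 steps. After 5 days, nuclei were counted on 4× images. Relative viability is treated-well nuclei count divided by vehicle-well nuclei count, and values are medians of duplicate plates.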

IDH-C35 + Luminespib = compound: Cc1ccccc1C(C(=O)NC1CCCCC1)N(C(=O)Cn1ccnc1C)c1cccc(F)c1 [IDH-C35] + CCNC(=O)c1noc(-c2cc(C(C)C)c(O)cc2O)c1-c1ccc(CN2CCOCC2)cc1 [Luminespib] (partner 0.01 µM)
How it was run: as §1

IDH-C35 + Tozasertib = compound: Cc1ccccc1C(C(=O)NC1CCCCC1)N(C(=O)Cn1ccnc1C)c1cccc(F)c1 [IDH-C35] + Cc1cc(Nc2cc(N3CCN(C)CC3)nc(Sc3ccc(NC(=O)C4CC4)cc3)n2)n[nH]1 [Tozasertib] (partner 0.1 µM)
How it was run: as §1

IDH-C35 + Olaparib = compound: Cc1ccccc1C(C(=O)NC1CCCCC1)N(C(=O)Cn1ccnc1C)c1cccc(F)c1 [IDH-C35] + O=C(c1cc(Cc2n[nH]c(=O)c3ccccc23)ccc1F)N1CCN(C(=O)C2CC2)CC1 [Olaparib] (partner 8 µM)
How it was run: as §1

Cell Line | relative viability ([1]; first compound 0.0025 µM) | relative viability ([1]; first compound 0.007906 µM) | relative viability ([1]; first compound 0.025 µM) | relative viability ([1]; first compound 0.07906 µM) | relative viability ([1]; first compound 0.25 µM) | relative viability (IDH-C35 + Luminespib; first compound 0.08 µM) | relative viability (IDH-C35 + Luminespib; first compound 0.253 µM) | relative viability (IDH-C35 + Luminespib; first compound 0.8 µM) | relative viability (IDH-C35 + Luminespib; first compound 2.53 µM) | relative viability (IDH-C35 + Luminespib; first compound 8 µM) | relative viability (IDH-C35 + Tozasertib; first compound 0.08 µM) | relative viability (IDH-C35 + Tozasertib; first compound 0.253 µM) | relative viability (IDH-C35 + Tozasertib; first compound 0.8 µM) | relative viability (IDH-C35 + Tozasertib; first compound 2.53 µM) | relative viability (IDH-C35 + Tozasertib; first compound 8 µM) | relative viability (IDH-C35 + Olaparib; first compound 0.08 µM) | relative viability (IDH-C35 + Olaparib; first compound 0.253 µM) | relative viability (IDH-C35 + Olaparib; first compound 0.8 µM) | relative viability (IDH-C35 + Olaparib; first compound 2.53 µM) | relative viability (IDH-C35 + Olaparib; first compound 8 µM)
NCI-H1975 | 0.754 | 0.743 | 0.729 | 0.747 | 0.786 | 0.165 | 0.244 | 0.206 | 0.276 | 0.135 | 0.782 | 0.898 | 0.673 | 0.672 | 0.691 | 0.809 | 0.805 | 0.815 | 0.8 | 0.735
NCI-H1651 | 0.504 | 0.601 | 0.505 | 0.545 | 0.581 | 0.861 | 0.6 | 0.67 | 0.797 | 0.716 | 0.696 | 0.737 | 0.643 | 0.632 | 0.683 | 0.173 | 0.179 | 0.181 | 0.166 | 0.188
NCI-H441 | 0.959 | 0.774 | 0.716 | 0.696 | 1.12 | 0.26 | 0.306 | 0.293 | 0.293 | 0.399 | 0.597 | 0.561 | 0.623 | 0.624 | 0.583 | 0.627 | 0.638 | 0.595 | 0.468 | 0.557
LCLC-103H | 0.871 | 0.896 | 0.792 | 0.772 | 0.689 | 0.93 | 0.999 | 0.95 | 0.959 | 0.859 | 0.554 | 0.435 | 0.47 | 0.499 | 0.38 | 0.788 | 0.71 | 0.807 | 0.777 | 0.711
LCLC-97TM1 | 0.984 | 1.03 | 0.575 | 0.72 | 0.776 | 0.842 | 0.734 | 0.682 | 0.738 | 0.604 | 0.397 | 0.189 | 0.184 | 0.196 | 0.231 | 0.322 | 0.291 | 0.341 | – | 0.47
NCI-H727 | 1.16 | 1.25 | 1.05 | 1.05 | 1.13 | 0.27 | 0.398 | 0.39 | 0.407 | 0.33 | 0.49 | 0.61 | 0.647 | 0.606 | 0.558 | 0.633 | 0.873 | 0.705 | 0.7 | 0.717
NCI-H1355 | 0.72 | 0.632 | 0.66 | 0.55 | 0.662 | 0.703 | 0.72 | 0.693 | 0.722 | 0.72 | 0.538 | 0.606 | 0.601 | 0.526 | 0.502 | 0.71 | 0.755 | 0.749 | 0.741 | 0.73
HOP-62 | 0.575 | 0.895 | 0.496 | 0.631 | 0.65 | 0.944 | 0.849 | 0.822 | 0.923 | 0.927 | 0.394 | 0.368 | 0.334 | 0.382 | 0.331 | 0.46 | 0.222 | 0.272 | – | 0.39
NCI-H2085 | 0.829 | 0.791 | 0.78 | 0.797 | 0.514 | 0.352 | 0.458 | 0.519 | 0.428 | 0.416 | 0.793 | 0.845 | 0.751 | 0.793 | 0.718 | 0.807 | 0.776 | 0.77 | 0.789 | 0.712
